From ChEMBL document CHEMBL3286137, “Design, synthesis and structure-activity relationships of novel 4-phenoxyquinoline derivatives containing pyridazinone moiety as potential antitumor agents” (Eur J Med Chem, 2014)

Columns and labels:
[1] = molecular target: T1, Amine oxidase [copper-containing] 3 (Homo sapiens, UniProt Q16853); assay: Inhibition of human VAP1
T1 sequence (Q16853 whole entry): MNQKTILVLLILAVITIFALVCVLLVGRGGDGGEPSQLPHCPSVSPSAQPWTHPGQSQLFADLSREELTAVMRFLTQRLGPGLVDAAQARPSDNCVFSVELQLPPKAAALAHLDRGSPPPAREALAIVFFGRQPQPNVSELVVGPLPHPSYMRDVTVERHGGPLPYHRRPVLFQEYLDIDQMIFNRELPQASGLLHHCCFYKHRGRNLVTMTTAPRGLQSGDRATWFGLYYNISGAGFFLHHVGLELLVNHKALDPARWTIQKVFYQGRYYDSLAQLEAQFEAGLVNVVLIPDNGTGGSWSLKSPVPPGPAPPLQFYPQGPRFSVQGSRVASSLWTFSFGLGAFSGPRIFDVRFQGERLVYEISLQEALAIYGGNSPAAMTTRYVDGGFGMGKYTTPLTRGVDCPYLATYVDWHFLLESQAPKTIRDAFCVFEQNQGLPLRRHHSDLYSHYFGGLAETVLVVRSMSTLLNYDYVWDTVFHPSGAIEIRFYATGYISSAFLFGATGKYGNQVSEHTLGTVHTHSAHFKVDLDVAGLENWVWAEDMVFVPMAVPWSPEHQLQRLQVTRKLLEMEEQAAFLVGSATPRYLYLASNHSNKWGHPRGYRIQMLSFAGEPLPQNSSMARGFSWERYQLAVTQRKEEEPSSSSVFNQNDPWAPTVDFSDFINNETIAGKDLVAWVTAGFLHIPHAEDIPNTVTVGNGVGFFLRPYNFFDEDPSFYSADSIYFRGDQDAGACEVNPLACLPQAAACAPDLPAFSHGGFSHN

[2] = Cytotoxicity against human U87MG cells assessed as inhibition of cell growth after 72 hrs by MTT assay; type: functional, cell-based, U-87MG ATCC; settings: U-87 MG
[3] = molecular target: Hepatocyte growth factor receptor (Homo sapiens, UniProt P08581); assay: Inhibition of c-Met (unknown origin) using poly (Glu,Tyr)4:1 as substrate by homogeneous time-resolved fluorescence assay
[4] = molecular target: Mast/stem cell growth factor receptor Kit (Homo sapiens, UniProt P10721); assay: Inhibition of c-Kit (unknown origin)
[5] = molecular target: T2, Receptor-type tyrosine-protein kinase FLT3 (Homo sapiens, UniProt P36888); assay: Inhibition of Flt3 (unknown origin)
T2 sequence (P36888 whole entry): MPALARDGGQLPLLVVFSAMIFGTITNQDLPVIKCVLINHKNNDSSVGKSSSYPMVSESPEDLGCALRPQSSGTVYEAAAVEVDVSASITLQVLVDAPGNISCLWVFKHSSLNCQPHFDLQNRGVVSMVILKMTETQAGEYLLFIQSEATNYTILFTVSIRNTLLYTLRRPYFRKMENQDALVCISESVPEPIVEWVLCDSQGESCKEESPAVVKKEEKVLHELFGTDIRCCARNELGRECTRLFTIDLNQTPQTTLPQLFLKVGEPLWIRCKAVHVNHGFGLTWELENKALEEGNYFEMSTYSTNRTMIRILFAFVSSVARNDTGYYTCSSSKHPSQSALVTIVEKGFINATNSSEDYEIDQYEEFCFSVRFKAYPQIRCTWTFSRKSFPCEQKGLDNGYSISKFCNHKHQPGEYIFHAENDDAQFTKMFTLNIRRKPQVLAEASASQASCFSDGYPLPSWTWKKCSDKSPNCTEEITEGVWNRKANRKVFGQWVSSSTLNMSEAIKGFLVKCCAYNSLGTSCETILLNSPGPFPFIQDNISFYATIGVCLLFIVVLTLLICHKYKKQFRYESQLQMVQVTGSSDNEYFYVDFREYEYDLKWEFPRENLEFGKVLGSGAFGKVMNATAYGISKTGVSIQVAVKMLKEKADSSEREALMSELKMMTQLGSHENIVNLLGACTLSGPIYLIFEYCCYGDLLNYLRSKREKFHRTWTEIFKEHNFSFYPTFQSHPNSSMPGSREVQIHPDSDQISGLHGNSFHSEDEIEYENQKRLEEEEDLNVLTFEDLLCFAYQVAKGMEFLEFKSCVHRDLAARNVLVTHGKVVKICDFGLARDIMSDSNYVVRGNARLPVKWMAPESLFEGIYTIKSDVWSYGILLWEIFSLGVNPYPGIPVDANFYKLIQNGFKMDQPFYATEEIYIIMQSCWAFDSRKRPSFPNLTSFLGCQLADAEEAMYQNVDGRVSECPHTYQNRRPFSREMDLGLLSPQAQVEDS

[6] = molecular target: Platelet-derived growth factor receptor beta (Homo sapiens, UniProt P09619); assay: Inhibition of PDGFR beta (unknown origin)
[7] = molecular target: Vascular endothelial growth factor receptor 2 (Homo sapiens, UniProt P35968); assay: Inhibition of KDR (unknown origin)
[8] = molecular target: Epidermal growth factor receptor (Homo sapiens, UniProt P00533); assay: Inhibition of EGFR (unknown origin)
HT-29 [9] = assay: Ratio of foretinib IC50 to compound IC50 for human HT-29 cells; type: functional
[10] = Ratio of foretinib IC50 to compound IC50 for human H460 cells; type: functional
HT-29 [11] = assay: cells; settings: Homo sapiens, HT-29, 72 h
cells [12] = settings: Homo sapiens, NCI-H460, 72 h
A549 = assay: cells; settings: Homo sapiens, A549, 72 h
cells [13] = settings: Homo sapiens, MKN-45, 72 h

SMILES | IC50 [1] [nM] | IC50 [2] [nM] | IC50 [3] [nM] | IC50 [4] [nM] | IC50 [5] [nM] | IC50 [6] [nM] | IC50 [7] [nM] | IC50 [8] [µM] | Ratio IC50 (HT-29 [9]) | Ratio IC50 [10] | IC50 (HT-29 [11]) [nM] | IC50 (cells [12]) [nM] | IC50 (A549) [nM] | IC50 (cells [13]) [nM]
O=c1ccc(=O)[nH][nH]1 | 20 |  |  |  |  |  |  |  |  |  |  |  |  | 
COc1cc2c(Oc3ccc(NC(=O)c4nn(-c5ccccc5C(F)(F)F)c(=O)cc4C)cc3F)ccnc2cc1OCCCN1CCOCC1 |  | 1060 | 2.15 | 4.32 | 9.28 | 92.3 | 425 | > 10 | 1.9 | 1.5 | 100 | 130 | 50 | 30
